Data as given in patent US8063014B2, “Self-assembly of peptide-amphiphile nanofibers under physiological conditions” (Northwestern University, priority 2002, dated 2011).
Non-standard residues stand in square brackets, D forms with d. Residues, ends and D or L forms follow the SMILES beside them. *: point of attachment. C16 alkyl = N-terminal C16 alkyl tail, CCCCCCCCCCCCCCCC*; Palmitoyl = CCCCCCCCCCCCCCCC(=O)*; pS = N[C@@H](COP(=O)(O)O)C(=O)O

Tests used:
[1] = Solubility, pH-dependent precipitation and gelation in water; type: physicochemical
Method: (§1) After synthesis (see, example 10), the PA of FIG. 1 (characterized by ^1H NMR and matrix-assisted laser desorption/ionization time-of-flight mass spectrometry (MALDI-TOF MS): matrix ion [M−H]^−1=1333) was treated with dithiothreitol (DTT) at a pH of 8 to reduce all cysteine residues to free thiols. […] However, upon acidification of the solution below pH 4 the material rapidly becomes insoluble. Solutions more concentrated than 2.5 mg/ml form birefringent gels in water that are self-supporting upon inversion of the container. […] Negatives were digitized in the Umax PowerLook scanner with resolution 1200 dpi. The average thickness of the PA fibers was determined by two different procedures. First the Fourier transform of the images and following measurements of the distances between the peaks were performed in the NIH Image […] program. The second approach applied was averaging technique based on the cross-correlation method, widely used in single particle reconstruction using the EMAN […] program. For each data set 1200-1300 individual boxes were selected.
Several PAs with basic amino acids that can self-assemble at alkaline pH and also mixed systems, in which oppositely charged PAs self-assemble at neutral pH, were prepared. For this purpose PA compounds 22-25 were prepared by standard solid phase peptide synthesis followed by alkylation with the C16 fatty acid, palmitic acid. See Table 2, FIG. 10b (PA 22) and FIGS. 10c-e (PAs 23-25). The peptides thus prepared were characterized by electrospray mass spectroscopy and found to correspond to their respective expected masses.
Solutions of each compound of example 6 were prepared at a concentration of 0.1 mg/m1 at neutral pH.

[2] = TEM of self-assembled nanofibers (fiber formation and diameter); type: physicochemical
Method: as §1, with “selected. […]” for “selected.”
Samples of the peptide-amphiphiles were prepared for TEM analysis in two different ways. In some cases a small sample of the gel, prepared in bulk as described above, was smeared onto a holey carbon coated TEM grid (Quantifoil). […]

[3] = Mineralization of PA nanofibers with CaCl2 and Na2HPO4 on TEM grid; conditions: 30 minutes of incubation with calcium and phosphate
Method: To investigate the mineralization properties of PA nanofibers of this invention, the material was assembled and mineralized directly on a holey carbon coated TEM grid—to allow study of the dynamics of the mineralization process while minimizing artifacts of TEM sample preparation. To prepare samples, a drop of aqueous PA (1 mg/ml) was mounted on the holey grid and the self-assembly of the PA was induced in an atmosphere of HCl vapor. The grids were immersed in aqueous iodine to oxidize the cysteine thiol groups to disulfides. After rinsing with distilled water, the PA coated grids were treated with 5 μl of 10 mM CaCl2 on one side and 5 μl of 5 mM Na2HPO4 on the other side. The two solutions are able to mix only by passing through the holes in the carbon support.
In a second control, a PA was prepared in which phosphoserine was replaced by serine and treated as above with calcium and phosphate.

[4] = Self-assembly on drying onto a surface; type: physicochemical; conditions: dissolved at neutral / physiological pH (pH 8), dried, negative stain TEM
Text: Such a facile approach allows this novel material to be formed in a pH independent manner, as may be important in applications that are particularly sensitive to changes in pH, including the delivery of cells in conjunction with the gelling system and generally avoiding contact between tissues and materials at non-physiological pH.
Illustrating another gelation factor of this invention, self-assembly can occur by simply taking a PA (such as PA 17, Table 2) or a combination of PAs dissolved in water at pH 8 and placing it on a surface which is allowed to dry (for example, directly on a carbon coated TEM grid). […] (See, FIG. 11.)

Compound	pH below which the material rapidly becomes insoluble on acidification ([1]; acidification of the aqueous solution) [pH]	concentration above which solutions form self-supporting birefringent gels in water ([1]; after acidification) [µg/mL]	solubility in water ([1]; pH of 8, DTT-reduced) [mg/mL]	fiber diameter, positively and negatively stained dried fibers ([2]; TEM, dried) [nm]	fiber diameter, cryo-TEM ([2]; native hydrated gel) [nm]	mineral observed on the fibers by TEM [3]	self-assembly on drying from solution onto a surface [4]
CCCCCCCCCCCCCCCC(=O)N[C@@H](CS)C(=O)N[C@@H](CS)C(=O)N[C@@H](CS)C(=O)N[C@@H](CS)C(=O)NCC(=O)NCC(=O)NCC(=O)N[C@@H](COP(=O)(O)O)C(=O)N[C@@H](CCCNC(=N)N)C(=O)NCC(=O)N[C@@H](CC(=O)O)C(=O)O [PA 26, Alkyl*-C4G3S^(P)RGD-COOH] (Palmitoyl-CCCCGGG[pS]RGD-OH)	< 4	> 2500	> 50	6.0±1	7.6±1	heavy crystallization	–
17 ({C16 alkyl}-CCCCGGG[pS]RGD-OH; cysteine pairing not given here) [compound 17]	–	–	–	–	–	–	formation of nanofibers
